Assay [1] has as its target T1, human cholecystokinin-1 receptor (CCK-1R) (Homo sapiens, UniProt P32238).
T1 construct: host or cells: 1321-N1 cells
T1 sequence (P32238 1-428): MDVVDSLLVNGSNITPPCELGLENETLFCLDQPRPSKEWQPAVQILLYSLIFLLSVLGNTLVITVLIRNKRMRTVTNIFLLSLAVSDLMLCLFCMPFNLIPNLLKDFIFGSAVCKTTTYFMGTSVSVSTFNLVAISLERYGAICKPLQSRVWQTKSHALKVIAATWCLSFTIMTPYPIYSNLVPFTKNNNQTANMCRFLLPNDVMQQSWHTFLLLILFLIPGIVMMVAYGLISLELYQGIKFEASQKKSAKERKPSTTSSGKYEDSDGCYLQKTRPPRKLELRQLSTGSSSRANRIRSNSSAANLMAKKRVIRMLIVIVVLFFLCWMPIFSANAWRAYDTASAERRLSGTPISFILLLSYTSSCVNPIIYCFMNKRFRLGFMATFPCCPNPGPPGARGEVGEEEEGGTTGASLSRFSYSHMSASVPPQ
Kind of assay: In vitro receptor binding to CCK-1R, SPA displacement of [125I]-CCK-8s from plasma membranes. Here is the method:
(§1) The in vitro binding affinity is a measure of the strength of attraction between a receptor and its ligand.
(§2) Displacement of radio ligand was measured as reduction in light emission from SPA beads.
(§3) The cells used in these assays were 1321-N1 cells stably expressing the CCK-1R or the CCK-2R (Perkin Elmer product numbers ES-530-A and ES-531-A, respectively see www.perkinelmer.com/Catalog/Product/ID/ES-530-A or -ES-531-A, respectively).
(§4) The cells were cultured in an incubator (95% RH (relative humidity), 5% (of standard atmospheric pressure) CO2, 37° C.) in cell culture medium (DMEM (Lonza catalogue BE-12-604F/U1), with 10% (v/v) Foetal Calf Serum (FCS, Gibco catalogue 16140-071), 1% (w/w) Sodium pyruvate (Gibco catalogue 11360-039), 500 μg/ml Geneticin® (G418) (Gibco catalogue 10131-027), 25 μg/ml Zeocin™ (Invitrogen catalogue R250-05), 1% (w/w) Pen/Strep (Gibco catalogue 15140-122)).
(§5) Plasma membranes were prepared by Evotec AG Hamburg by use of the ParrBomb (#4635, Parr Instrument Company). Cells were lysed with a lysis buffer (50 mM Tris, 2.5 mM EDTA, pH7) with added protease inhibitors (Complete Proteaseinhibitors EDTA-free (#05056489001, Roche), 1 tablet per 50 mL lysis buffer). The membrane fraction was separated by centrifugation. First, the cell lysate was centrifuged at 1000×g for 10 minutes at 4° C. The pellet was discarded and the supernatant was then centrifuged at 100.000×g for 30 minutes at 4° C. The supernatant was discarded and the pellet was re-suspended in 1 ml/5×10^8 cells ice cold membrane buffer (50 mM Tris, 320 mM Sucrose and Complete Proteaseinhibitors EDTA-free (#05056489001, Roche); pH7.4) and homogenised with dounce homogeniser. The protein concentration was determined using the Pierce™ BCA Protein Assay Kit according to kit manual, and the membrane preparation was adjust to the desired protein concentration with membrane buffer and aliquoted into pre-cooled tubes, snap-frozen in liquid nitrogen, and stored at −80° C.
(§6) CCK receptor binding assays were performed in 96-well Optiplates (Cat #6005290, PerkinElmer, Waltham, Mass., USA) in a total volume of 200 μl per well. CCK derivatives in 80% DMSO stock solutions of 800 μM were serially diluted […] in assay buffer (50 mM Tris/HCl, 4.5 mM MgCl2, […], 0.02% Tween 20, 0.25% ovalbumin, 0.1% pluronic F-68, pH 7.4) to final assay concentrations ranging from 10^−5 M (ten μM) to 10^−12 M (one pM).
(§7) Fifty μl of reference or test compounds were added to the Optiplates (using technical duplicates, i.e. two wells of each sample, one data point being the average of two wells), followed by addition of 150 μl of the mixture of SPA bead, radio ligand, and plasma membrane. The plates were sealed and incubated in the dark at +22° C. for 2 hours on a IKA MTS plate shaker (IKA-Werke D-79219 Staufen) set at 300 rpm and thereafter centrifuged at 1500 rpm for 10 minutes in a Heraeus Multifuge 3s centrifuge. SPA bead light emission was measured in a TopCount NXT (PerkinElmer) for 2 min/well after a delay of 60 min.
(§8) As a measure of compound affinity, calculations were performed in order to determine the half maximal inhibitory concentration (the IC50 value).
(§9) The data from the TopCounter were given as counts per minute (CPM). The CPM was plotted as a function of the concentration of compound. Dose-response curves were obtained, and IC50 values were calculated, by a nonlinear three-parameter logistic equation (log(agonist) vs response) with hillslope=−1, and shared top and bottom using the software programme GraphPad Prism v 6.0 (Graph Pad software, La Jolla, Calif., USA). The highest dose tested was 10^−5 M (1×10^7 pM).
(§10) The preference of a specific compound for the CCK-1 receptor, or the CCK-1R selectivity, may be defined as IC50 (CCK-2R)/IC50 (CCK-1R).
(§11) A minimum of three biological replicates was measured for each test compound on separate assay plates.
On the technique in general: Loss of bound radioactivity is the signal in a displacement assay; it reports binding, not function.

Assay [2] addresses T2, human cholecystokinin-2 receptor (CCK-2R) (Homo sapiens, UniProt P32239).
T2 construct: host or cells: 1321-N1 cells (plasma membranes prepared by Evotec AG Hamburg)
T2 sequence (P32239 1-447): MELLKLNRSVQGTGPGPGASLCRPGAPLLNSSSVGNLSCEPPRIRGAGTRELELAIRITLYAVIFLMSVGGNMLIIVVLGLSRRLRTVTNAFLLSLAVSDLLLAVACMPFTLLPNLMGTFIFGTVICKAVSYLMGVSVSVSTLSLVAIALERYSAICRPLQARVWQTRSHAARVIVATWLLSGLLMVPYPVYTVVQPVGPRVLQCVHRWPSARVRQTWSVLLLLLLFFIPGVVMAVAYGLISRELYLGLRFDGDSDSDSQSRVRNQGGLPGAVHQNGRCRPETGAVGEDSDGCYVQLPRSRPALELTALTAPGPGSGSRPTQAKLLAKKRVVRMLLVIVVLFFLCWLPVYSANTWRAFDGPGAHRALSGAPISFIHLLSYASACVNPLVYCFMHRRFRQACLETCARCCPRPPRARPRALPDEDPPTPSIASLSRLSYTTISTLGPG
Kind of assay: In vitro receptor binding to CCK-2R, SPA displacement of [125I]-CCK-8s from plasma membranes. As to the method: as §1, §2, §3, §4, §5, §6, §7, §8, §9, §10, §11

Assay [3] has as its target T2, human cholecystokinin-2 receptor (CCK-2R). Kind of assay: In vitro potency on CCK-2R, whole cell functional assay (IP1 accumulation, IP-One HTRF). Format: cell-based. (In TR-FRET formats the signal depends on donor and acceptor labels being close together.)
Where [4] appears, read: displacement of [125I]-CCK-8s, plasma membranes of 1321-N1 cells expressing CCK-1R, read-out: IC50 (CCK-1R).
The mark [5] stands for this setting: displacement of [125I]-CCK-8s, plasma membranes of 1321-N1 cells expressing CCK-2R, highest dose tested 1×10^7 pM, read-out: IC50 (CCK-2R).

pEC50, pIC50: −log10 of the molar value. Where two headings read alike, the source gives them in different places. Starred links: 1 amine or outer side, 2 acyl side, 3 side chain; linkers in the order of their positions; H or OH if unused. Non-standard residues stand in square brackets, D forms with d. Residues, ends and D or L forms follow the SMILES beside them. *: point of attachment. Phe(4-CH2SO3H) = N[C@@H](Cc1ccc(CS(=O)(=O)O)cc1)C(=O)O; sY = N[C@@H](Cc1ccc(OS(=O)(=O)O)cc1)C(=O)O; C18 diacid = O=C(O)CCCCCCCCCCCCCCCCC(=O)*; γGlu = O=C(O)[C@H](CCC(=O)[*:2])N[*:1]; 2Nal = N[C@@H](Cc1ccc2ccccc2c1)C(=O)O; NMeF = CN[C@@H](Cc1ccccc1)C(=O)O; dNMeD = CN[C@H](CC(=O)O)C(=O)O; Nle = CCCC[C@H](N)C(=O)O; AEEA = NCCOCCOCC(=O)O

What is called pIC50 is −log10 of the IC50, conventionally taken in molar units. As usually defined, the pEC50 is the EC50 on a negative log10 scale, so that one unit is a factor of ten.

Consider `CC[C@H](C)[C@H](NC(=O)[C@H](Cc1c[nH]c2ccccc12)NC(=O)CNC(=O)[C@H](CC(C)C)NC(=O)[C@H](Cc1ccc(OS(=O)(=O)O)cc1)NC(=O)[C@H](CC(=O)O)NC(=O)COCCOCCNC(=O)COCCOCCNC(=O)CC[C@H](NC(=O)CCCCCCCCCCCCCCCCC(=O)O)C(=O)O)C(=O)N(C)[C@H](CC(=O)O)C(=O)N(C)[C@@H](Cc1ccccc1)C(N)=O` [Example 10, 2-[2-[2-[[2-[2-[2-[[(4S)-4-Carboxy-4-(17-carboxyheptadecanoylamino)butanoyl]amino]ethoxy]ethoxy]acetyl]amino]ethoxy]ethoxy]acetyl-Asp-sTyr-Leu-Gly-Trp-Ile-DMeAsp-MePhe-amide] ({C18 diacid-γGlu-AEEA-AEEA}-D[sY]LGWI[dNMeD][NMeF]-NH2), for which the pIC50 in assay [1] was 10.00; in assay [2] it was 5.64.
Consider `CC(C)C[C@H](NC(=O)[C@H](Cc1ccc(OS(=O)(=O)O)cc1)NC(=O)[C@H](CC(=O)O)NC(=O)COCCOCCNC(=O)COCCOCCNC(=O)CC[C@H](NC(=O)CCCCCCCCCCCCCCCCC(=O)O)C(=O)O)C(=O)NCC(=O)N[C@@H](Cc1c[nH]c2ccccc12)C(=O)N[C@@H](CCC(N)=O)C(=O)N(C)[C@H](CC(=O)O)C(=O)N(C)[C@@H](Cc1ccccc1)C(N)=O` [Example 11, 2-[2-[2-[[2-[2-[2-[[(4S)-4-Carboxy-4-(17-carboxyheptadecanoylamino)butanoyl]amino]ethoxy]ethoxy]acetyl]amino]ethoxy]ethoxy]acetyl-Asp-sTyr-Leu-Gly-Trp-Gln-DMeAsp-MePhe-amide] ({C18 diacid-γGlu-AEEA-AEEA}-D[sY]LGWQ[dNMeD][NMeF]-NH2), for which the pIC50 is 10.08 in assay [1] and under 5.00 in assay [2]. Besides, in assay [3], the pEC50 was under 6.00.
For the molecule `CCCC[C@H](NC(=O)[C@H](Cc1ccc(CS(=O)(=O)O)cc1)NC(=O)[C@@H](CC(=O)O)NC(=O)COCCOCCNC(=O)COCCOCCNC(=O)CC[C@H](NC(=O)CCCCCCCCCCCCCCCCC(=O)O)C(=O)O)C(=O)NCC(=O)N[C@@H](Cc1c[nH]c2ccccc12)C(=O)N[C@@H](CCCC)C(=O)N(C)[C@H](CC(=O)O)C(=O)N(C)[C@@H](Cc1ccccc1)C(N)=O` [Example 25, 2-[2-[2-[[2-[2-[2-[[(4S)-4-Carboxy-4-(17-carboxyheptadecanoylamino)butanoyl]amino]ethoxy]ethoxy]acetyl]amino]ethoxy]ethoxy]acetyl-DAsp-Phe(4-sulfomethyl)-Nle-Gly-Trp-Nle-DMeAsp-MePhe-amide] ({C18 diacid-γGlu-AEEA-AEEA}-[dD][Phe(4-CH2SO3H)][Nle]GW[Nle][dNMeD][NMeF]-NH2), the pIC50 in assay [1] (setting [4]) is 10.14; in assay [2] (setting [5]) it was under 5.00. Moreover, the pEC50 in assay [3] (1321-N1 cells stably expressing CCK-2R, IP1 accumulation, highest dose tested 1×10^6 pM, read-out: EC50 (CCK-2R)) was under 6.00.
For `CCCC[C@H](NC(=O)[C@H](Cc1c[nH]c2ccccc12)NC(=O)CNC(=O)[C@H](CC(C)C)NC(=O)[C@H](Cc1ccc(OS(=O)(=O)O)cc1)NC(=O)[C@H](CC(=O)O)NC(=O)COCCOCCNC(=O)COCCOCCNC(=O)CC[C@H](NC(=O)CC[C@H](NC(=O)CCCCCCCCCCCCCCCCC(=O)O)C(=O)O)C(=O)O)C(=O)N(C)[C@H](CC(=O)O)C(=O)N(C)[C@@H](Cc1ccccc1)C(N)=O` [Example 28, 2-[2-[2-[[2-[2-[2-[[(4S)-4-Carboxy-4-[[(4S)-4-carboxy-4-(17-carboxyheptadecanoylamino)butanoyl]amino]butanoyl]amino]ethoxy]ethoxy]acetyl]amino]ethoxy]ethoxy]acetyl-Asp-sTyr-Leu-Gly-Trp-Nle-DMeAsp-MePhe-amide], in assay [1] (setting [4]), the pIC50 is 10.00.
Same read-out and setting: to `CCCC[C@H](NC(=O)[C@H](Cc1c[nH]c2ccccc12)NC(=O)CNC(=O)[C@H](CC(C)C)NC(=O)[C@H](Cc1ccc(OS(=O)(=O)O)cc1)NC(=O)[C@H](CC(=O)O)NC(=O)COCCOCCNC(=O)COCCOCCNC(=O)CC[C@H](NC(=O)CCCCCCCCCCCCCCCCC(=O)O)C(=O)O)C(=O)N(C)[C@H](CC(=O)O)C(=O)N[C@@H](Cc1ccc2ccccc2c1)C(N)=O` [Example 50, 2-[2-[2-[[2-[2-[2-[[(4S)-4-Carboxy-4-(17-carboxyheptadecanoylamino)butanoyl]amino]ethoxy]ethoxy]acetyl]amino]ethoxy]ethoxy]acetyl-Asp-sTyr-Leu-Gly-Trp-Nle-DMeAsp-2Nal-amide] ({C18 diacid-γGlu-AEEA-AEEA}-D[sY]LGW[Nle][dNMeD][2Nal]-NH2) belongs 9.85.
For the molecule `CCCC[C@H](NC(=O)[C@H](Cc1c[nH]c2ccccc12)NC(=O)CNC(=O)[C@H](CC(C)C)NC(=O)[C@H](Cc1ccc(OS(=O)(=O)O)cc1)NC(=O)[C@H](CCC(=O)O)NC(=O)COCCOCCNC(=O)COCCOCCNC(=O)CC[C@H](NC(=O)CCCCCCCCCCCCCCCCC(=O)O)C(=O)O)C(=O)N(C)[C@H](CC(=O)O)C(=O)N[C@@H](Cc1ccccc1)C(N)=O` [Example 52, 2-[2-[2-[[2-[2-[2-[[(4S)-4-Carboxy-4-(17-carboxyheptadecanoylamino)butanoyl]amino]ethoxy]ethoxy]acetyl]amino]ethoxy]ethoxy]acetyl-Glu-sTyr-Leu-Gly-Trp-Nle-DMeAsp-Phe-amide] ({C18 diacid-γGlu-AEEA-AEEA}-E[sY]LGW[Nle][dNMeD]F-NH2), the figures for the pIC50 in assay [1] (setting [4]) and in assay [2] (setting [5]) were 10.31 and 6.32, respectively.

Source of the values: patent US20170008928A1, “NOVEL PEPTIDES AND PEPTIDE DERIVATIVES AND USES THEREOF” (Novo Nordisk A/S, priority 2015, published 2017).
